Test results as given in ChEMBL document CHEMBL3039007, “Structure-based identification of OATP1B1/3 inhibitors” (Mol Pharmacol, 2013).

Tests used:
[1] = target: T1, Solute carrier organic anion transporter family member 1B1 (Homo sapiens, UniProt Q9Y6L6); settings: chinese hamster, cho, 10 µM
T1 sequence (Q9Y6L6 whole entry): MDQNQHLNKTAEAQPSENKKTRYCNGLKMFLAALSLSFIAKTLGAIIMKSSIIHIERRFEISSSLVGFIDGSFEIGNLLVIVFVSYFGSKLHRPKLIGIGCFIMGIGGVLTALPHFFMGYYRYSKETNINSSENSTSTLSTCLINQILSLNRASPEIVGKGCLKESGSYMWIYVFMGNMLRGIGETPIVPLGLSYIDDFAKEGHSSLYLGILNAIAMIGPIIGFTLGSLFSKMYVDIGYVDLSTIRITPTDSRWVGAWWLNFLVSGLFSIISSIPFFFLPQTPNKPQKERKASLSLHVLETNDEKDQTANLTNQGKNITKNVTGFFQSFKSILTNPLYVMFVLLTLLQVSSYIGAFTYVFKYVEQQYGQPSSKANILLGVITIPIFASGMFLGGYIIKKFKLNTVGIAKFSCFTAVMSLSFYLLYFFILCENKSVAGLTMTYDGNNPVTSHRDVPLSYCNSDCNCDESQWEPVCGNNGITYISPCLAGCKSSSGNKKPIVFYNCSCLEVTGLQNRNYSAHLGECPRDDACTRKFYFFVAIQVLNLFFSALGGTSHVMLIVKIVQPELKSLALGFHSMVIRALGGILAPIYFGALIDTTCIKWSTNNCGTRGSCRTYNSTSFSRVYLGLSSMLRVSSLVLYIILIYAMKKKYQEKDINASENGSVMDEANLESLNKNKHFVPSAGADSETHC

[2] = target: T2, Solute carrier organic anion transporter family member 1B3 (Homo sapiens, UniProt Q9NPD5); settings: chinese hamster, cho, 10 µM
T2 sequence (Q9NPD5 whole entry): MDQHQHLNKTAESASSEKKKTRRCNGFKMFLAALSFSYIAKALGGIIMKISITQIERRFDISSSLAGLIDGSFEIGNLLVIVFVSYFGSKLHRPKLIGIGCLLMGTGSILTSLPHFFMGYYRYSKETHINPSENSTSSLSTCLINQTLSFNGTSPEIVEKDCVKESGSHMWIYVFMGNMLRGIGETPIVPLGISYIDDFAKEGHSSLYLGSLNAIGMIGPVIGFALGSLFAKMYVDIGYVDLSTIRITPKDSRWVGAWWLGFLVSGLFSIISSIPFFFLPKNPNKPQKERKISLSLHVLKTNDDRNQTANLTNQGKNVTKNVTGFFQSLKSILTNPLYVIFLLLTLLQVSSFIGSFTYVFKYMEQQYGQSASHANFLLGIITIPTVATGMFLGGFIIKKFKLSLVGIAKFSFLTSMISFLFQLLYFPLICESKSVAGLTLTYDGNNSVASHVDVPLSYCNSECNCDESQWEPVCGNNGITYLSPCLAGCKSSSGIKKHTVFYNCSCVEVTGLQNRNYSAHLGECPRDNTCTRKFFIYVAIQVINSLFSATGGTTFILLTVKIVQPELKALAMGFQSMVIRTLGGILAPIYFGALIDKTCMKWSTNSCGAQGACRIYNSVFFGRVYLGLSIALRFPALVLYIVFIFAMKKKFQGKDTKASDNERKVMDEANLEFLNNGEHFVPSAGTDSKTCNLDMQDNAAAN

SMILES | residual activity [1] | residual activity [2]
C[C@@H]1O[C@@H](O[C@H]2[C@H](Oc3cc(O)c4c(=O)cc(-c5ccc(O)cc5)oc4c3)O[C@H](CO)[C@@H](O)[C@@H]2O)[C@H](O)[C@H](O)[C@H]1O [RHOIFOLIN] | 101.7% | 203.1%
NC(=O)c1ncn([C@@H]2O[C@H](CO)[C@@H](O)[C@H]2O)n1 [RIBAVIRIN] | 112.3% | 87.39%
OC[C@@H](O)[C@@H](O)[C@@H](O)CO [RIBITOL] | 81.13% | 94.42%
CO[C@H]1/C=C/O[C@@]2(C)Oc3c(C)c(O)c4c(O)c(c(/C=N/N5CCN(C)CC5)c(O)c4c3C2=O)NC(=O)/C(C)=C\C=C\[C@H](C)[C@H](O)[C@@H](C)[C@@H](O)[C@@H](C)[C@H](OC(C)=O)[C@@H]1C [RIFAMPIN] | 33.63% | 22.01%
CO[C@H]1/C=C/O[C@@]2(C)Oc3c(C)c(O)c4c(O)c(c5c(nc6cc(C)ccn65)c4c3C2=O)NC(=O)/C(C)=C\C=C\[C@H](C)[C@H](O)[C@@H](C)[C@@H](O)[C@@H](C)[C@H](OC(C)=O)[C@@H]1C [RIFAXIMIN] | 63.34% | 81.07%
Nc1nc2ccc(OC(F)(F)F)cc2s1 [RILUZOLE] | 95.81% | 124.8%
Cc1nc2sccn2c(=O)c1CCN1CCC(=C(c2ccc(F)cc2)c2ccc(F)cc2)CC1 [RITANSERIN] | 96.72% | 101.7%
CC(NCCc1ccc(O)cc1)C(O)c1ccc(O)cc1.Cl (stereo not given) [RITODRINE HYDROCHLORIDE] | 125.6% | 112.7%
COc1ccc(-c2c(OC)c3c(OC)c4c(cc3oc2=O)OC(C)(C)C=C4)cc1 [ROBUSTIC ACID METHYL ETHER] | 184.1% | 140.2%
COc1ccc(-c2c(O)c3c(OC)c4c(cc3oc2=O)OC(C)(C)C=C4)cc1 [ROBUSTIC ACID] | 96.44% | 74.37%
CC1(C)C=Cc2c(cc3occ(-c4ccc5c(c4)OCO5)c(=O)c3c2O)O1 [ROBUSTONE] | 102.3% | 96.96%
CS(=O)(=O)c1ccc(C2=C(c3ccccc3)C(=O)OC2)cc1 [ROFECOXIB] | 134.4% | 84.03%
Cn1c([N+](=O)[O-])cnc1COC(N)=O [RONIDAZOLE] | 103.6% | 88.05%
O=C(/C=C/c1ccc(O)c(O)c1)O[C@H](Cc1ccc(O)c(O)c1)C(=O)O [ROSMARINIC ACID] | 103.9% | 102.5%
C=C(C)[C@H]1Cc2c(ccc3c2O[C@@H]2COc4cc(OC)c(OC)cc4[C@@H]2C3=O)O1 [ROTENONE] | 23.22% | 43.86%
COc1cc2c(cc1OC)[C@@H]1C(=O)c3ccc(OC)c(CC=C(C)C)c3O[C@@H]1CO2 [ROTENONIC ACID, METHYL ETHER] | 77.03% | 108.1%
COc1cc2c(cc1OC)[C@@H]1C(=O)c3ccc(O)c(CC=C(C)C)c3O[C@@H]1CO2 [ROTENONIC ACID] | 53.2% | 99.21%
O=[N+]([O-])c1cc([As](=O)(O)O)ccc1O [ROXARSONE] | 82.84% | 90.61%
CC[C@H]1OC(=O)[C@H](C)[C@@H](O[C@H]2C[C@@](C)(OC)[C@@H](O)[C@H](C)O2)[C@H](C)[C@@H](O[C@@H]2O[C@H](C)C[C@H](N(C)C)[C@H]2O)[C@](C)(O)C[C@@H](C)/C(=N\OCOCCOC)[C@H](C)[C@@H](O)[C@]1(C)O [ROXITHROMYCIN] | 91.33% | 77.16%
CC[C@@]1(O)C[C@H](O)c2c(cc3c(c2O)C(=O)c2c(O)ccc(O)c2C3=O)[C@H]1C(=O)OC [RUTILANTINONE] | 74.91% | 99.74%
CCCCSP(=O)(SCCCC)SCCCC [S,S,S,-TRIBUTYLPHOSPHOROTRITHIOATE] | 125.7% | 111.8%
CC(=O)O.CSC(=N)NCCC[C@H](N)C(=O)O [S-METHYL-L-THIOCITRULLINE ACETATE] | 104.5% | 107%
O=C1NS(=O)(=O)c2ccccc21 [SACCHARIN] | 112.4% | 110.9%

SMILES | residual activity [1] | residual activity [2]
C=CCc1ccc2c(c1)OCO2 [SAFROLE] | 83.42% | 100.9%
OCC(O)Cc1ccc2c(c1)OCO2 (stereo not given) [SAFROLGLYCOL] | 82.94% | 83.74%
OCc1ccccc1O[C@@H]1O[C@H](CO)[C@@H](O)[C@H](O)[C@H]1O [SALICIN] | 85.64% | 97.32%
OCc1ccccc1O [SALICYL ALCOHOL] | 92.07% | 117.7%
NC(=O)c1ccccc1O [SALICYLAMIDE] | 85.6% | 94.84%
COc1cc2c(cc1OC)[C@H](C)NCC2 [SALSOLIDINE] | 117.3% | 93.8%
COc1cc2c(cc1O)CCN[C@@H]2C [SALSOLINE] | 86.65% | 112.8%
C[n+]1cc2c3c(ccc2c2ccc4cc5c(cc4c21)OCO5)OCO3.O=S(=O)([O-])O [SANGUINARINE SULFATE] | 134.6% | 92.42%
CC1=C2[C@H]3OC(=O)[C@@H](C)[C@@H]3CC[C@@]2(C)C=CC1=O [SANTONIN] | 108.9% | 89.43%
COc1ccc2c(c1)OC/C(=C/c1ccc(O)c(O)c1)C2=O [SAPPANONE A 7-METHYL ETHER] | 159.5% | 107.8%
COc1ccc2c(c1)OC/C(=C\c1ccc(OC)c(O)c1)C2=O [SAPPANONE A DIMETHYL ETHER] | 166.6% | 136.1%
COc1ccc2c(c1)OC/C(=C/c1ccc(OC)c(OC)c1)C2=O [SAPPANONE A TRIMETHYL ETHER] | 112% | 100.7%
Cl.O=C(O)c1cn(-c2ccc(F)cc2)c2cc(N3CCNCC3)c(F)cc2c1=O [SARAFLOXACIN HYDROCHLORIDE] | 109.6% | 115.6%
C[C@]12CC[C@H](O)C[C@H]1CC[C@@H]1[C@@H]2[C@H](O)C[C@]2(C)[C@@H](C3=CC(=O)OC3)CC[C@]12O [SARMENTOGENIN] | 70.58% | 105.8%
COC1C(O)C(O[C@H]2CC[C@]3(C=O)C4C(CC[C@]3(O)C2)[C@@]2(O)CC[C@H](C3=CC(=O)OC3)[C@@]2(C)C[C@H]4OC(C)=O)OC(C)C1OC(C)=O (stereo not given in full) [SARMENTOSIDE B] | 58.47% | 72.65%
COc1cc2ccc(=O)oc2cc1O [SCOPOLETIN] | 87.31% | 99.95%
Cc1ncc([N+](=O)[O-])n1CC(C)O (stereo not given) [SECNIDAZOLE] | 132.9% | 92.29%
O=C1C=C2C=C[C@@H]3C[C@@]2(O1)[C@H]1CCCCN31 [SECURININE] | 92.42% | 115.4%
CO[C@H]1C[C@H](O[C@@H]2/C(C)=C/C[C@@H]3C[C@@H](C[C@]4(CC[C@H](C)[C@@H](C5CCCCC5)O4)O3)OC(=O)[C@@H]3C=C(C)/C(=N/O)[C@H]4OC/C(=C\C=C\[C@@H]2C)[C@]43O)O[C@@H](C)[C@@H]1O [SELAMECTIN] | 98.02% | 93.37%
CC1CCC(NC(=O)N(CCCl)N=O)CC1 (stereo not given) [SEMUSTINE] | 101.5% | 100.5%
CC(=O)Oc1c(-c2ccccc2)oc2c(CC=C(C)C)c3c(c(OC(C)=O)c2c1=O)C=CC(C)(C)O3 [SERICETIN DIACETATE] | 106.8% | 81.94%
CC(C)=CCc1c2c(c(O)c3c(=O)c(O)c(-c4ccccc4)oc13)C=CC(C)(C)O2 [SERICETIN] | 89.94% | 98.26%
